PubChem BioAssay (NCI)
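96-well plates; 48 h exposure; 5 concentrations. Endpoints by linear interpolation between flanking doses. Not reached: highest tested concentration assigned. Here, GI50 denotes the concentration required for 50% inhibition of growth. At the TGI there is no net growth.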

Columns and labels:
Experiment in all cases: DTP human tumour cell line panel, 48 h
786-0 renal = system: 786-0 renal
A498 renal = system: A498 renal
A549 NSCLC = system: A549 NSCLC
ACHN renal = system: ACHN renal
BT-549 breast = system: BT-549 breast
CAKI-1 renal = system: CAKI-1 renal
CCRF-CEM leukemia = system: CCRF-CEM leukemia
COLO 205 colon = system: COLO 205 colon
DU-145 prostate = system: DU-145 prostate
EKVX NSCLC = system: EKVX NSCLC
HCC-2998 colon = system: HCC-2998 colon
HCT-116 colon = system: HCT-116 colon
HCT-15 colon = system: HCT-15 colon
HL-60(TB) leukemia = system: HL-60(TB) leukemia
HOP-62 NSCLC = system: HOP-62 NSCLC
HOP-92 NSCLC = system: HOP-92 NSCLC
HS 578T breast = system: HS 578T breast
HT29 colon = system: HT29 colon
IGROV1 ovarian = system: IGROV1 ovarian
K-562 leukemia = system: K-562 leukemia
KM12 colon = system: KM12 colon
LOX IMVI melanoma = system: LOX IMVI melanoma
M14 melanoma = system: M14 melanoma
MALME-3M melanoma = system: MALME-3M melanoma
MCF7 breast = system: MCF7 breast
MDA-MB-231 breast = system: MDA-MB-231 breast
MDA-MB-435 = system: MDA-MB-435
MDA-MB-468 breast = system: MDA-MB-468 breast
MOLT-4 leukemia = system: MOLT-4 leukemia
NCI-H226 lung = system: NCI-H226 lung
NCI-H23 lung = system: NCI-H23 lung
NCI-H460 lung = system: NCI-H460 lung
NCI-H522 lung = system: NCI-H522 lung
NCI/ADR-RES ovarian = system: NCI/ADR-RES ovarian
OVCAR-3 ovarian = system: OVCAR-3 ovarian
OVCAR-4 ovarian = system: OVCAR-4 ovarian
OVCAR-5 ovarian = system: OVCAR-5 ovarian
OVCAR-8 ovarian = system: OVCAR-8 ovarian
PC-3 prostate = system: PC-3 prostate
RPMI-8226 leukemia = system: RPMI-8226 leukemia
RXF 393 renal = system: RXF 393 renal
SF-268 CNS = system: SF-268 CNS
SF-295 CNS = system: SF-295 CNS
SF-539 CNS = system: SF-539 CNS
SK-MEL-2 melanoma = system: SK-MEL-2 melanoma
SK-MEL-28 melanoma = system: SK-MEL-28 melanoma
SK-MEL-5 melanoma = system: SK-MEL-5 melanoma
SK-OV-3 ovarian = system: SK-OV-3 ovarian
SN12C renal = system: SN12C renal
SNB-19 CNS = system: SNB-19 CNS
SNB-75 CNS = system: SNB-75 CNS
SR leukemia = system: SR leukemia
SW-620 colon = system: SW-620 colon
T-47D breast = system: T-47D breast
TK-10 renal = system: TK-10 renal
U251 CNS = system: U251 CNS
UACC-257 melanoma = system: UACC-257 melanoma
UACC-62 melanoma = system: UACC-62 melanoma
UO-31 renal = system: UO-31 renal

C#CCNC(=O)CCC(=O)OC[C@]12CC[C@@H](C(=C)C)[C@@H]1C1CC[C@@H]3[C@@]4(C)CCCNC(C)(C)[C@@H]4CC[C@@]3(C)[C@]1(C)CC2 (stereo partly drawn)
GI50 (786-0 renal): 8.29 µM
TGI (786-0 renal): 23.6 µM
GI50 (A498 renal): 10.3 µM
TGI (A498 renal): 20.9 µM
GI50 (A549 NSCLC): 7.12 µM
TGI (A549 NSCLC): 16.7 µM
GI50 (ACHN renal): 10.1 µM
TGI (ACHN renal): 18.9 µM
GI50 (BT-549 breast): 11.3 µM
TGI (BT-549 breast): 21.1 µM
GI50 (CAKI-1 renal): 8.1 µM
TGI (CAKI-1 renal): 17.2 µM
GI50 (CCRF-CEM leukemia): 4.24 µM
TGI (CCRF-CEM leukemia): 37.1 µM
GI50 (COLO 205 colon): 2.25 µM
TGI (COLO 205 colon): 7.29 µM
GI50 (DU-145 prostate): 10 µM
TGI (DU-145 prostate): 21.5 µM
GI50 (EKVX NSCLC): 6.5 µM
TGI (EKVX NSCLC): 14.2 µM
GI50 (HCC-2998 colon): 2.55 µM
TGI (HCC-2998 colon): 10.3 µM
GI50 (HCT-116 colon): 3.31 µM
TGI (HCT-116 colon): 27.4 µM
GI50 (HCT-15 colon): 3.89 µM
TGI (HCT-15 colon): 12.4 µM
GI50 (HL-60(TB) leukemia): 2.37 µM
TGI (HL-60(TB) leukemia): 14 µM
GI50 (HOP-62 NSCLC): 11.7 µM
TGI (HOP-62 NSCLC): 23.7 µM
GI50 (HOP-92 NSCLC): 7.54 µM
TGI (HOP-92 NSCLC): 19 µM
GI50 (HS 578T breast): 9.96 µM
TGI (HS 578T breast): 24.2 µM
GI50 (HT29 colon): 2.71 µM
TGI (HT29 colon): 13.9 µM
GI50 (IGROV1 ovarian): 7.29 µM
TGI (IGROV1 ovarian): 16.3 µM
GI50 (K-562 leukemia): 1.78 µM
TGI (K-562 leukemia): 16.3 µM
GI50 (KM12 colon): 8.73 µM
TGI (KM12 colon): 18.8 µM
GI50 (LOX IMVI melanoma): 1.23 µM
TGI (LOX IMVI melanoma): 2.83 µM
GI50 (M14 melanoma): 6.83 µM
TGI (M14 melanoma): 19 µM
GI50 (MALME-3M melanoma): 9.03 µM
TGI (MALME-3M melanoma): 18.5 µM
GI50 (MCF7 breast): 2.36 µM
TGI (MCF7 breast): 9.66 µM
GI50 (MDA-MB-231 breast): 8.83 µM
TGI (MDA-MB-231 breast): 17.7 µM
GI50 (MDA-MB-435): 6.9 µM
TGI (MDA-MB-435): 15.2 µM
GI50 (MDA-MB-468 breast): 2.21 µM
TGI (MDA-MB-468 breast): 10.5 µM
GI50 (MOLT-4 leukemia): 2.42 µM
TGI (MOLT-4 leukemia): 18.7 µM
GI50 (NCI-H226 lung): 7.58 µM
TGI (NCI-H226 lung): 18.3 µM
GI50 (NCI-H23 lung): 7.89 µM
TGI (NCI-H23 lung): 16.1 µM
GI50 (NCI-H460 lung): 7.89 µM
TGI (NCI-H460 lung): 18.6 µM
GI50 (NCI-H522 lung): 11.7 µM
TGI (NCI-H522 lung): 25.4 µM
GI50 (NCI/ADR-RES ovarian): 5.48 µM
TGI (NCI/ADR-RES ovarian): 16.6 µM
GI50 (OVCAR-3 ovarian): 7.73 µM
TGI (OVCAR-3 ovarian): 18.2 µM
GI50 (OVCAR-4 ovarian): 9.11 µM
TGI (OVCAR-4 ovarian): 20.8 µM
GI50 (OVCAR-5 ovarian): 9.38 µM
TGI (OVCAR-5 ovarian): 17.9 µM
GI50 (OVCAR-8 ovarian): 11.1 µM
TGI (OVCAR-8 ovarian): 33.8 µM
GI50 (PC-3 prostate): 4.8 µM
TGI (PC-3 prostate): 16.3 µM
GI50 (RPMI-8226 leukemia): 4.15 µM
TGI (RPMI-8226 leukemia): 20.7 µM
GI50 (RXF 393 renal): 3.51 µM
TGI (RXF 393 renal): 13.6 µM
GI50 (SF-268 CNS): 10.5 µM
TGI (SF-268 CNS): 23.8 µM
GI50 (SF-295 CNS): 3.54 µM
TGI (SF-295 CNS): 12.2 µM
GI50 (SF-539 CNS): 7.48 µM
TGI (SF-539 CNS): 15.7 µM
GI50 (SK-MEL-2 melanoma): 11.7 µM
TGI (SK-MEL-2 melanoma): 23.3 µM
GI50 (SK-MEL-28 melanoma): 8.2 µM
TGI (SK-MEL-28 melanoma): 16.5 µM
GI50 (SK-MEL-5 melanoma): 6.78 µM
TGI (SK-MEL-5 melanoma): 14.4 µM
GI50 (SK-OV-3 ovarian): 9.94 µM
TGI (SK-OV-3 ovarian): 20 µM
GI50 (SN12C renal): 7.89 µM
TGI (SN12C renal): 16.7 µM
GI50 (SNB-19 CNS): 8.91 µM
TGI (SNB-19 CNS): 17.6 µM
GI50 (SNB-75 CNS): 9.12 µM
TGI (SNB-75 CNS): 18.7 µM
GI50 (SR leukemia): > 64.8 µM
TGI (SR leukemia): > 64.8 µM
GI50 (SW-620 colon): 7.25 µM
TGI (SW-620 colon): 16.7 µM
GI50 (T-47D breast): 8.06 µM
TGI (T-47D breast): 21.1 µM
GI50 (TK-10 renal): 10.1 µM
TGI (TK-10 renal): 22 µM
GI50 (U251 CNS): 6.62 µM
TGI (U251 CNS): 16.8 µM
GI50 (UACC-257 melanoma): 2.51 µM
TGI (UACC-257 melanoma): 9.16 µM
GI50 (UACC-62 melanoma): 9.04 µM
TGI (UACC-62 melanoma): 18.1 µM
GI50 (UO-31 renal): 6.96 µM
TGI (UO-31 renal): 14.9 µM
